pEC50: −log10 of the molar value.
system: EV71 virus strain Shenzhen/120F1/09; experiment: EV71 in-vitro cytopathic effect (CPE) test; format: cell-based, RD cells of human rhabdomyoma; details: Enterovirus A, 72 h; RD cells, EV71 100 TCID50, 3 days, CCK8 readout; read-out: EC50 by EC71 CPE test, EV71
Experimental: Test of EV71 In-Vitro Cytopathic Effect (CPE) To test the in-vitro antiviral activity and cytotoxicity of a compound to HFMD virus EV71 by means of cytopathic effect (CPE) test. […] Cell line: RD cells of human rhabdomyoma • 3. Cell culture media: DMEM medium added with 10% serum, Penicillin/Streptomycin and L-[…]×) • 4. […] Cell inoculation: digest off the RD cells from the attached state, then dilute them with culture medium to a density of 80000/ml and inoculate 100 μl into the micro wells the 96-well plate. • 2. Dilution of compound: • Step 1: prepare the dry powder of a compound to test into a 10 mM solution in DMSO. Then dilute the compound by three times to eight concentration points. Dilute the reference compounds with the same method. • Step 2: further dilute the diluted solution of the compound in DMSO with cell culture medium. Add 10 μl DMSO solution for each well into 240 μl culture medium. • 3. Add the diluted compound solution by 50 μl each well into the 96-well plate inoculated with cells (double holes, final concentration of DMSO is 1%). • 4. Dilution of virus: dilute EV71 virus solution by 10000 times to a concentration of 100 TCID50/50 μl/. Add the diluted virus solution by 50 μl each well into the 96-well plate. Prepare another 96-well plate to replace the virus with culture medium and similarly inoculate the cells. Add the compound to test the toxicity of compound on cells. • 5. Cultivate the 96-well plate 3 days at the conditions of 37° C. and 5% CO2. • 6. EC50 and CC50 tests: add the cellular activity test reagent CCK8 into the micro-wells by 20 μl/well. Use ELIASA to read the absorbancy at the wavelength of 450 nm and 630 nm. • 7.

Compound | pEC50
O=S1(=O)N(CCCCCOc2ccc(-c3ccc(Cl)cc3)cc2)CCN1c1ccncc1 [Embodiment 6, 2-(5-((4′-chloro-[1,1′-biphenyl]-4-yl)oxy)pentyl)-5-(pyridin-4-yl)-1,2,5-thiadiazolidine-1,1-dioxide] | 7.00 to 7.30
CCO/N=C/c1ccc(OCCCCCN2CCN(c3ccncc3)S2(=O)=O)cc1 [Embodiment 7] | > 7.30
CCO/N=C1\CCc2cc(OCCCCCN3CCN(c4ccncc4)S3(=O)=O)ccc21 [Embodiment 8] | 7.00 to 7.30
CCc1nc(-c2ccc(OCCCCCN3CCN(c4ccncc4)S3(=O)=O)cc2)no1 [Embodiment 10, 2-(5-(4-(5-ethyl-1,2,4-oxadiazol-3-yl)-phenoxy)-pentyl)-5-(pyridin-4-yl)-1,2,5-thiadiazolidine-1,1-dioxide] | 7.00 to 7.30
CCn1nnc(-c2ccc(OCCCCCN3CCN(c4ccncc4)S3(=O)=O)cc2)n1 [Embodiment 11, 2-(5-(4-(2-ethyl-2H-tetrazol-5-yl)-phenoxy)pentyl)-5-(pyridin-4-yl)-1,2,5-thiadiazolidine-1,1-dioxide] | 7.00 to 7.30
CCOc1noc2cc(OCCCCCN3CCN(c4ccncc4)S3(=O)=O)ccc12 [Embodiment 12, 2-(5-((3-ethoxy-benzo[d]isoxazole-6-yl)-oxy)pentyl)-5-(pyridin-4-yl)-1,2,5-thiadiazolidine-1,1-dioxide] | > 7.30
O=S1(=O)N(CCOCCOc2ccc(-c3ccc(Cl)cc3)cc2)CCN1c1ccncc1 [Embodiment 13, 2-(2-(2-((4′-chloro-[1,1′-biphenyl]-4-yl)oxy)ethoxy)ethyl)-5-(pyridin-4-yl)-1,2,5-thiadiazolidine-1,1-dioxide] | 6.30 to 7.00
CCO/N=C/c1ccc(OCCC(C)CCN2CCN(c3ccncc3)S2(=O)=O)cc1 (centres unmarked) [Embodiment 14, (E)-4-((5-(1,1-dioxo-5-(pyridin-4-yl)-1,2,5-thiadiazolidine-2-yl)-3-methyl-pentyl)-oxy)-benzaldehyde-O-ethyloxime] | > 7.30
CCOc1noc2cc(OCCC(C)CCN3CCN(c4ccncc4)S3(=O)=O)ccc12 (centres unmarked) [Embodiment 15, 2-(5-((3-ethoxy-benzo[d]isoxazole-6-yl)-oxy)-3-methyl-pentyl)-5-(pyridin-4-yl)-1,2,5-thiadiazolidine-1,1-dioxide] | > 7.30
Nc1cc(N2CCN(CCCCCOc3ccc(-c4ccc(Cl)cc4)cc3)S2(=O)=O)ccn1 [Embodiment 16, 2-(2-aminopyridine-4-yl)-5-(5-((4′-chloro-[1,1′-biphenyl]-4-yl)-oxy)-pentyl)-1,2,5-thiadiazolidine-1,1-dioxide] | > 7.30
CCO/N=C/c1ccc(OCCC(C)CCN2CCN(c3ccnc(N)c3)S2(=O)=O)cc1 (centres unmarked) [Embodiment 17, (E)-4-((5-(5-(2-amino-pyridin-4-yl)-1,1-dioxo-1,2,5-thiadiazolidine-2-yl)-3-methyl-pentyl)-oxy)-benzaldehyde-O-ethylketoxime] | > 7.30
CCOc1noc2cc(OCCCCCN3CCN(c4ccnc(NC)c4)S3(=O)=O)ccc12 [Embodiment 18, 2-(5-((3-ethoxy-benzo[d]isoxazol-6)-oxo)-pentyl)-5-(2-(methylamino)-pyridine-4)-1,2,5-thiadiazoline-1,1-dioxide] | > 7.30
O=S1(=O)N(CCCCC2CCc3cc(-c4ccc(Cl)cc4)ccc3O2)CCN1c1ccncc1 (centres unmarked) [Embodiment 19, 2-(4-(6-(4-chlorophenyl)-chroman-2-yl)-butyl)-5-(pyridin-4-yl)-1,2,5-thiadiazolidine-1,1-dioxide] | 6.30 to 7.00
CCO/N=C/c1ccc2c(c1)CCC(CCCCN1CCN(c3ccncc3)S1(=O)=O)O2 (centres unmarked) [Embodiment 21, (E)-2-(4-(1,1-dioxo-5-(pyridin-4-yl)-1,2,5-thiadiazolidine-2-yl)-butyl)-chroman-6-formaldehyde-O-ethyloxime] | > 7.30
Nc1cc(N2CCN(CCCCCOc3ccc(C=O)cc3)S2(=O)=O)ccn1 [Embodiment 24, 4-((5-(5-(2-aminopyridin-4-yl)-1,1-dioxide-1,2,5-thiadiazolidine-2-yl)-pentyl)-oxy)-benzaldehyde] | 6.00 to 6.30
CCO/N=C/c1ccc(OCCCCCCN2CCN(c3ccnc(N)c3)S2(=O)=O)cc1 [Embodiment 25, (E)-4-((6-(5-(2-aminopyridin-4-yl)-1,1-dioxide-1,2,5-thiadiazolidine-2-yl)-hexyl)-oxy)-benzaldehyde-O-ethyl ketoxime] | > 7.30

Compound | pEC50
CCO/N=C/c1ccc(OCCCCN2CCN(c3ccnc(N)c3)S2(=O)=O)cc1 [Embodiment 26] | 6.30 to 7.00
CCn1nnc(-c2ccc(OCCCCCN3CCN(c4ccnc(N)c4)S3(=O)=O)cc2)n1 [Embodiment 27, 4-(5-(5-(4-(2-ethyl-tetrazol-5-yl)-phenoxy)-pentyl)-1,1-dioxide-1,2,5-thiadiazolidine-2-yl)-pyridin-2-amine] | > 7.30
CCOc1noc2cc(OCCCCCN3CCN(c4ccnc(N)c4)S3(=O)=O)ccc12 [Embodiment 28, 4-(5-(5-((3-ethoxy-1,2-benzoxazol-6-yl)-oxy)-pentyl)-1,1-dioxide-1,2,5-thiadiazolidine-2-yl)-pyridin-2-amine] | > 7.30
CCO/N=C1\CCc2cc(OCCC(C)(C)CCN3CCN(c4ccnc(N)c4)S3(=O)=O)ccc21 [Embodiment 30, (E)-2-(2-amino-pyridin-4-yl)-5-(5-((1-(ethoxy-imino)-2,3-dihydro-1H-inden-5-yl)-oxy)-3,3-dimethylpentyl)-1,2,5-thiadiazolidine-1,1-dioxide] | > 7.30
CCO/N=C1\CCc2cc(OCCC(F)(F)CCN3CCN(c4ccnc(N)c4)S3(=O)=O)ccc21 [Embodiment 31, (E)-2-(2-amino-pyridin-4-yl)-5-(5-((1-(ethoxy-imino)-2,3-dihydro-1H-inden-5-yl)-oxy)-3,3-difluoropentyl)-1,2,5-thiadiazolidine-1,1-dioxide] | 6.30 to 7.00
CCO/N=C/c1ccc(OCCCCCN2CCN(c3ccnc(C)c3)S2(=O)=O)cc1 [Embodiment 32, (E)-4-((5-(5-(2-methylpyridin-4-yl)-1,1-dioxide-1,2,5-thiadiazol-2-yl)-pentyl)-oxy)-benzaldehyde-O-ethyl ketoxime] | > 7.30
CCO/N=C/c1ccc(OCCCCCN2CCN(c3ccc(C)nn3)S2(=O)=O)cc1 [Embodiment 33, (E)-4-((5-(5-(6-methyl-pyridazin-3-yl)-1,1-dioxide-1,2,5-thiadiazolidine-2-yl)-pentyl)-oxy)-benzaldehyde-O-ethyl ketoxime] | 6.30 to 7.00
CCO/N=C/c1ccc(OCCCCCN2CCN(c3ccc(Cl)nn3)S2(=O)=O)cc1 [Embodiment 34, (E)-4-((5-(5-(6-chloro-pyridazin-3-yl)-1,1-dioxide-1,2,5-thiadiazolidine-2-yl)-pentyl)-oxy)-benzaldehyde-O-ethyl ketoxime] | 6.00 to 6.30
CCO/N=C/c1ccc(OCCCCCN2CCN(c3nccs3)S2(=O)=O)cc1 [Embodiment 35, (E)-4-((5-(1,1-dioxide-5-(thiazol-2-yl)-1,2,5-thiadiazolidine-2-yl)-pentyl)-oxy)-benzaldehyde-O-ethyl ketoxime] | 6.30 to 7.00
CCO/N=C/c1ccc(OCCCCCN2CCN(c3ccnc(NC(C)=O)c3)S2(=O)=O)cc1 [Embodiment 36, (E)-N-(4-(5-(5-(4-((ethoxy-imino)-methyl)-phenoxy)-pentyl)-1,1-dioxide-1,2,5-thiadiazolidine-2-yl)-pyridin-2-yl)-acetamide] | > 7.30
CCO/N=C/c1ccc(OCCCCCN2CCN(c3ccnc(C(=O)OC)c3)S2(=O)=O)cc1 [Embodiment 37] | 6.00 to 6.30
CCO/N=C/c1ccc(OCCCCCN2CCN(c3cc(N)ncn3)S2(=O)=O)cc1 [Embodiment 38, (E)-4-((5-(5-(6-amino-pyrimidin-4-yl)-1,1-dioxide-1,2,5-thiadiazolidine-2-yl)-pentyl)-oxy)-benzaldehyde-O-ethyl ketoxime] | > 7.30
CCO/N=C/c1ccc(OCCCCCN2CCN(c3ccnc(F)c3)S2(=O)=O)cc1 [Embodiment 39, (E)-4-((5-(5-(2-Fluoro-4-yl)-1,1-dioxide-1,2,5-thiadiazolidine-2-yl)-pentyl)-oxy)-benzaldehyde-O-ethyl ketoxime] | 7.00 to 7.30
CCO/N=C/c1ccc(OCCCCCN2CCN(c3ccnc(NCCO)c3)S2(=O)=O)cc1 [Embodiment 40, (E)-4-((5-(5-(2-((2-hydroxyethyl)-amino)-pyridin-4-yl)-1,1-dioxide-1,2,5-thiadiazolidine-2-yl)-pentyl)-oxy)-benzaldehyde-O-ethyl ketoxime] | > 7.30
CCO/N=C/c1ccc(OCCCCCN2CCN(c3ccnc(NC)c3)S2(=O)=O)cc1 [Embodiment 41, (E)-4-((5-(5-(2-(methylamino)-pyridin-4-yl)-1,1-dioxide-1,2,5-thiadiazolidine-2-yl)-pentyl)-oxy)-benzaldehyde-O-ethyl ketoxime] | > 7.30
CCO/N=C/c1ccc(OCCCCCN2CCN(c3ccnc(N4CCC4)c3)S2(=O)=O)cc1 [Embodiment 42, (E)-4-((5-(5-(2-(azetidin-1-yl)-pyridin-4-yl)-1,1-dioxide-1,2,5-thiadiazolidine-2-yl)-pentyl)-oxy)-benzaldehyde-O-ethyl ketoxime] | 6.30 to 7.00

— US9988361B2, “Anti-enterovirus 71 thiadiazolidine derivative” (JIANGSU KANION PHARMACEUTICAL CO. LTD, priority 2014, dated 2018)
